In the NIST ThermoML archive (doi:10.1021/je400332j):
Numbers after ± are expanded uncertainties.

Experiment: xn = mol fraction of the nth substance listed
Details: 101 kPa, Liquid; for mass density: Vibrating tube method; for viscosity: Concentric cylinders viscometry

CCCCCCn1cc[n+](C)c1.F[B-](F)(F)F [1-hexyl-3-methylimidazolium tetrafluoroborate] + CCn1cc[n+](C)c1.F[B-](F)(F)F
Details | mass density [kg/m3] | viscosity [mPa·s]
318.15 K, x2 = 0 | 1130.3 ± 1 | –
318.15 K, x2 = 0.1009 | 1140.3 ± 1 | –
318.15 K, x2 = 0.2005 | 1150.9 ± 1.1 | –
318.15 K, x2 = 0.3003 | 1162 ± 1.1 | –
318.15 K, x2 = 0.4001 | 1173.9 ± 1.1 | –
318.15 K, x2 = 0.4999 | 1186.5 ± 1.1 | –
318.15 K, x2 = 0.6007 | 1200.2 ± 1.1 | –
318.15 K, x2 = 0.7004 | 1214.6 ± 1.1 | –
318.15 K, x2 = 0.8001 | 1230.1 ± 1.1 | –
318.15 K, x2 = 0.8998 | 1246.7 ± 1.1 | –
323.15 K, x2 = 0 | 1127 ± 1 | 59.03 ± 4.8
323.15 K, x2 = 0.1009 | 1136.9 ± 1 | 53.34 ± 4.3
323.15 K, x2 = 0.2005 | 1147.4 ± 1.1 | 47.98 ± 3.9
323.15 K, x2 = 0.3003 | 1158.5 ± 1.1 | 42.8 ± 3.4
323.15 K, x2 = 0.4001 | 1170.4 ± 1.1 | 38.02 ± 3.1
323.15 K, x2 = 0.4999 | 1183 ± 1.1 | 33.6 ± 2.7
323.15 K, x2 = 0.6007 | 1196.6 ± 1.1 | 29.48 ± 2.4
323.15 K, x2 = 0.7004 | 1211 ± 1.1 | 25.79 ± 2.1
323.15 K, x2 = 0.8001 | 1226.4 ± 1.1 | 22.4 ± 1.8
323.15 K, x2 = 0.8998 | 1242.9 ± 1.1 | 19.38 ± 1.6
328.15 K, x2 = 0 | 1123.6 ± 1 | 48.16 ± 3.9
328.15 K, x2 = 0.1009 | 1133.5 ± 1 | 43.73 ± 3.5
328.15 K, x2 = 0.2005 | 1144 ± 1.1 | 39.57 ± 3.2
328.15 K, x2 = 0.3003 | 1155.1 ± 1.1 | 35.51 ± 2.9
328.15 K, x2 = 0.4001 | 1166.9 ± 1.1 | 31.77 ± 2.6
328.15 K, x2 = 0.4999 | 1179.4 ± 1.1 | 28.27 ± 2.3
328.15 K, x2 = 0.6007 | 1192.9 ± 1.1 | 25.02 ± 2
328.15 K, x2 = 0.7004 | 1207.4 ± 1.1 | 22.05 ± 1.8
328.15 K, x2 = 0.8001 | 1222.7 ± 1.1 | 19.31 ± 1.6
328.15 K, x2 = 0.8998 | 1239.2 ± 1.1 | 16.85 ± 1.4
333.15 K, x2 = 0 | 1120.2 ± 1 | 39.71 ± 3.2
333.15 K, x2 = 0.1009 | 1130.1 ± 1 | 36.3 ± 2.9
333.15 K, x2 = 0.2005 | 1140.6 ± 1.1 | 33.02 ± 2.7
333.15 K, x2 = 0.3003 | 1151.6 ± 1.1 | 29.82 ± 2.4
333.15 K, x2 = 0.4001 | 1163.4 ± 1.1 | 26.83 ± 2.2
333.15 K, x2 = 0.4999 | 1176 ± 1.1 | 24.04 ± 1.9
333.15 K, x2 = 0.6007 | 1189.5 ± 1.1 | 21.41 ± 1.7
333.15 K, x2 = 0.7004 | 1203.8 ± 1.1 | 19.03 ± 1.5
333.15 K, x2 = 0.8001 | 1219.1 ± 1.1 | 16.8 ± 1.4
333.15 K, x2 = 0.8998 | 1235.6 ± 1.1 | 14.78 ± 1.2
338.15 K, x2 = 0 | 1116.8 ± 1 | 33.21 ± 2.7
338.15 K, x2 = 0.1009 | 1126.7 ± 1 | 30.47 ± 2.4
338.15 K, x2 = 0.2005 | 1137.2 ± 1 | 27.86 ± 2.2
338.15 K, x2 = 0.3003 | 1148.2 ± 1.1 | 25.3 ± 2
338.15 K, x2 = 0.4001 | 1160 ± 1.1 | 22.92 ± 1.8
338.15 K, x2 = 0.4999 | 1172.5 ± 1.1 | 20.64 ± 1.7
338.15 K, x2 = 0.6007 | 1186 ± 1.1 | 18.52 ± 1.5
338.15 K, x2 = 0.7004 | 1200.2 ± 1.1 | 16.56 ± 1.3
338.15 K, x2 = 0.8001 | 1215.5 ± 1.1 | 14.73 ± 1.2
338.15 K, x2 = 0.8998 | 1231.9 ± 1.1 | 13.05 ± 1.1
343.15 K, x2 = 0 | 1113.4 ± 1 | 28.03 ± 2.3
343.15 K, x2 = 0.1009 | 1123.4 ± 1 | 25.82 ± 2.1
343.15 K, x2 = 0.2005 | 1133.8 ± 1 | 23.74 ± 1.9
343.15 K, x2 = 0.3003 | 1144.8 ± 1.1 | 21.65 ± 1.7
343.15 K, x2 = 0.4001 | 1156.5 ± 1.1 | 19.72 ± 1.6
343.15 K, x2 = 0.4999 | 1169 ± 1.1 | 17.89 ± 1.4
343.15 K, x2 = 0.6007 | 1182.4 ± 1.1 | 16.11 ± 1.3
343.15 K, x2 = 0.7004 | 1196.7 ± 1.1 | 14.52 ± 1.2
343.15 K, x2 = 0.8001 | 1212 ± 1.1 | 13 ± 1.1
343.15 K, x2 = 0.8998 | 1228.3 ± 1.1 | 11.6 ± 0.93
